Measured values published in US11952346B2, “Modulators of mas-related G-protein receptor X2 and related products and methods” (Escient Pharmaceuticals, Inc., priority 2020, dated 2024).

target: T1, human MRGPRX2 (Homo sapiens, UniProt Q96LB1); experiment: MRGPRX2 antagonist activity, IP-One HTRF assay in CHO cells expressing human MRGPRX2 versus Cortistatin-14; type: cell-based; settings: CHO cells stably expressing human MRGPRX2; versus 0.3 uM Cortistatin-14 agonist; IP-1 HTRF readout; read-out: MRGPR2 Antagonist Activity
T1 construct: expressed in transfected cells
T1 sequence (Q96LB1 1-330): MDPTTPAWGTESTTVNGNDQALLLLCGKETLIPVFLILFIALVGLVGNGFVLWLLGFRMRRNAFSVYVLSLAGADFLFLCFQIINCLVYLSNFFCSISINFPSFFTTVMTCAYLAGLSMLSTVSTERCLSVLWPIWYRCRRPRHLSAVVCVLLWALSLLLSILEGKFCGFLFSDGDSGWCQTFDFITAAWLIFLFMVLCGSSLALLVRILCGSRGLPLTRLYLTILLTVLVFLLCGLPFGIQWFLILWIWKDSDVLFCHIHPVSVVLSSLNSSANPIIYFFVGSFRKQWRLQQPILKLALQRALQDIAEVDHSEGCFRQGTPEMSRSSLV
Procedure: CHO cells stably transfected to express human MRGPRX2 were maintained in an incubator at 37° C. with 5% CO2 and grown in F12 (HAM) media with 10% fetal bovine serum (FBS), 1% Glutamax, 1% penicillin/streptomycin, 800 μg/mL Geneticin (G418), and 300 μg/mL Hygromycin B. Cells were plated in a 384-well assay plate at 20,000 cells per well in 12 μL of Opti-MEM and kept in an incubator overnight. On the day of the assay, compounds solubilized at 10 mM in DMSO were added as a 10-point curve (30 uM final top concentration with 1:3 serial dilutions) using a Tecan D300E digital dispenser. Agonists were diluted in assay buffer (final concentrations of 5.7 mM Tris-HCl, 43 mM NaCl, 50 mM LiCI, pH=8) and 2 μL of the agonist Cortistatin-14 (CPC Scientific, catalog CORT-002) are added to each well. Final concentrations of agonists were […] Cortistatin-14. Final concentrations of DMSO were kept consistent across the plate. Plates were incubated in the dark for 1 hr at 37° C. and then for 1 hr at room temperature. IP-1 standards and HTRF detection reagents were added according to the IP-One—Gq Kit purchased from Cisbio (part number 621PAPEJ) and incubated in the dark for 1 hr at room temperature. The plate was read on a Molecular Devices SpectraMax iD5 plate reader. The HTRF ratio was calculated from the raw data and graphed using GraphPad Prism to calculate an IC50 value for each compound.
The activity ranges are denoted as follows: “+++++” denotes antagonist activity <100 nM; “++++” denotes antagonist activity between 100 and 500 nM; “+++” denotes activity between 501 and 1000 nM; “++” denotes activity between 1001 and 2500 nM; and “+” denotes activity >2500 nM.

First: COc1cccc(C(=O)N[C@H]2CC[C@@H](Nc3ccc(C#N)c(C(F)(F)F)c3)CC2)c1 [1-23]
Second: CN(C)c1ccc(C(=O)N[C@H]2CC[C@@H](Nc3ccc(C#N)c(C(F)(F)F)c3)CC2)cc1 [1-21]
The IC50 of the first is higher: 100 to 500 nM for the first, under 100 nM for the second. The second is the more potent here.

First: Cc1ccoc1C(=O)N[C@H]1CC[C@@H](Nc2cc(C(F)(F)F)nc(C(F)(F)F)c2)CC1 [1-5]
Second: O=C(N[C@H]1CC[C@@H](Nc2cc(C(F)(F)F)nc(C(F)(F)F)c2)CC1)c1ccc(Cl)cc1 [4-14]
The IC50 of the first is higher: 1000 to 2500 nM for the first, 501 to 1000 nM for the second. The second is the more potent here.

First: CN(C)c1ccc(C(=O)N[C@H]2CC[C@@H](Nc3cc(C(F)(F)F)nc(C(F)(F)F)c3)CC2)cc1 [1-2]
Second: N#Cc1ccc(C(=O)N[C@H]2CC[C@@H](Nc3cc(C(F)(F)F)nc(C(F)(F)F)c3)CC2)cc1 [4-13]
The IC50 of the first is lower: 100 to 500 nM for the first, over 2500 nM for the second.

First: N#Cc1cccc(C(=O)N[C@H]2CC[C@@H](Nc3cc(C(F)(F)F)nc(C(F)(F)F)c3)CC2)c1 [1-4]
Second: CNC(=O)Nc1cccc(C(=O)N[C@H]2CC[C@@H](Nc3cc(C(F)(F)F)nc(C(F)(F)F)c3)CC2)c1 [4-3]
The IC50 of the first is higher: 1000 to 2500 nM for the first, 100 to 500 nM for the second.

`Cc1cc(N[C@H]2CC[C@@H](NC(=O)c3cnn(CC(F)(F)F)c3)CC2)cc(C(F)(F)F)c1C#N` [5-5] and `Cc1cc(N[C@H]2CC[C@@H](NC(=O)c3ccc4nccn4c3)CC2)cc(C(F)(F)F)c1C#N` [2-3] cannot be ordered by IC50: under 100 nM for the first, under 100 nM for the second.

Compared with `O=C(N[C@H]1CC[C@@H](Nc2cc(C(F)(F)F)nc(C(F)(F)F)c2)CC1)c1cccc2ncsc12` [4-9], `O=C1Nc2c(C(=O)N[C@H]3CC[C@@H](Nc4cc(C(F)(F)F)nc(C(F)(F)F)c4)CC3)cccc2C1=O` [4-7] is higher in IC50: 100 to 500 nM for the first, 1000 to 2500 nM for the second. The first is the more potent here.

`N#Cc1ccc(N[C@H]2CC[C@@H](NC(=O)c3ccnc4cn[nH]c34)CC2)cc1C(F)(F)F` [4-58] and `N#Cc1ccc(N[C@H]2CC[C@@H](NC(=O)c3cn[nH]c3C(F)(F)F)CC2)cc1C(F)(F)F` [4-44] cannot be ordered by IC50: under 100 nM for the first, under 100 nM for the second.

`Cc1cc(C(=O)N[C@H]2CC[C@@H](Nc3cc(C)c(C#N)c(C(F)(F)F)c3)CC2)cc(C)n1` [5-1] and `Cc1cn(-c2ccc(C(=O)N[C@H]3CC[C@@H](Nc4ccc(C#N)c(C(F)(F)F)c4)CC3)cc2)cn1` [4-51] cannot be ordered by IC50: under 100 nM for the first, under 100 nM for the second.

First: COc1ccc(C(=O)N[C@H]2CCC[C@@H](Nc3cc(C(F)(F)F)cc(C(F)(F)F)c3)C2)cc1 (stereo in doubt) [example 5, N-((1S,3R)-3-((3,5-bis(trifluoromethyl)phenyl)amino)cyclohexyl)-4-methoxybenzamide]
Second: COc1ccc(C(=O)N[C@H]2CC[C@@H](Nc3cc(C(F)(F)F)cc(C(F)(F)F)c3)CC2)cc1 [Example 14, N-((1S,4S)-4-((3,5-bis(trifluoromethyl)phenyl)amino)cyclohexyl)-4-methoxybenzamide]
The IC50 of the first is lower: 1000 to 2500 nM for the first, over 2500 nM for the second. The first is the more potent here.

`CNC(=O)c1ccc(C(=O)N[C@H]2CC[C@@H](Nc3ccc(C#N)c(C(F)(F)F)c3)CC2)cc1` [4-65] and `CC(=O)Nc1ccc(C(=O)N[C@H]2CC[C@@H](Nc3ccc(C#N)c(C(F)(F)F)c3)CC2)cc1` [4-48] cannot be ordered by IC50: under 100 nM for the first, under 100 nM for the second.

First: N#Cc1ccc(N[C@H]2CC[C@@H](NC(=O)c3cccc4[nH]ccc34)CC2)cc1C(F)(F)F [1-12]
Second: O=C(N[C@H]1CC[C@@H](Nc2cc(Cl)nc(C(F)(F)F)c2)CC1)c1ccc(F)cc1 [Example 7, N-(1S,4S)-[4-[[2-chloro-6-(trifluoromethyl)-4-pyridyl]amino]cyclohexyl]-4-fluoro-benzamide]
The IC50 of the first is lower: under 100 nM for the first, 501 to 1000 nM for the second.

First: COc1ccc(C(=O)N[C@@H]2CCC[C@H](Nc3nc(C(F)(F)F)nc4c3CCC4)C2)cc1 [1-6]
Second: O=C(N[C@H]1CC[C@@H](Nc2cc(C(F)(F)F)nc(C(F)(F)F)c2)CC1)c1ccc(-n2cccn2)cc1 [4-31]
The IC50 of the first is higher: 1000 to 2500 nM for the first, 100 to 500 nM for the second. The second is the more potent here.

Compared with `Cc1cc(C)n(-c2ccc(C(=O)N[C@H]3CC[C@@H](Nc4cc(C(F)(F)F)nc(C(F)(F)F)c4)CC3)cc2)n1` [4-24], `O=C(N[C@H]1CC[C@@H](Nc2cc(C(F)(F)F)nc(C(F)(F)F)c2)CC1)c1ccc(-n2cnnn2)cc1` [4-30] is lower in IC50: 501 to 1000 nM for the first, 100 to 500 nM for the second.

`CN1CCCc2cccc(C(=O)N[C@H]3CC[C@@H](Nc4cc(C(F)(F)F)nc(C(F)(F)F)c4)CC3)c21` [4-26] showed an IC50 of 1000 to 2500 nM.
